Where two headings read alike, the source gives them in different places.
Columns and labels:
Type in all cases: cell-based
A. calcoaceticus = system: A. calcoaceticus
E. cloacae = E. cloacae strain ECL007
E. coli = system: E. coli
E. faecalis = system: E. faecalis
E. faecium = system: E. faecium
K. pneumoniae = system: K. pneumoniae
P. aeruginosa = system: P. aeruginosa
S. aureus = system: S. aureus
S. epidermidis = system: S. epidermidis
S. maltophilia = system: S. maltophilia
S. marcescens = system: S. marcescens
bacterial isolates = test: microbe, parasite or virus in culture; conditions: combination with Ciprofloxacin

Sequence | MIC (A. calcoaceticus; A. calcoaceticus strain AC002) [µg/mL] | MIC (E. cloacae) [µg/mL] | MIC (E. coli; E. coli strain ECO005) [µg/mL] | MIC (E. faecalis; E. faecalis strain EFS002) [µg/mL] | MIC (E. faecium; E. faecium strain EFM003) [µg/mL] | MIC (K. pneumoniae; K. pneumoniae strain KP001) [µg/mL] | MIC (P. aeruginosa; P. aeruginosa strain PA004) [µg/mL] | MIC (S. maltophilia; S. maltophilia strain SMA002) [µg/mL] | MIC (S. marcescens; S. marcescens strain SMS003) [µg/mL] | MIC (E. coli; E. coli strain ECO003) [µg/mL] | MIC (S. maltophilia; S. maltophilia strain SMA001) [µg/mL] | MIC (S. marcescens; S. marcescens strain SMS004) [µg/mL] | MIC (S. epidermidis; S. epidermidis strain SE002) [µg/mL] | other results
ILKKFPFWPWRRK [MBI 11A7CN] | 4 | >128 | 8 | 16 | 2 | 8 | >128 | 64 | >128 |  |  |  |  | MIC (E. faecalis; E. faecalis strain EFS001): 2 µg/mL; MIC (E. faecalis; E. faecalis strain EFS008): 4 µg/mL; MIC (S. aureus; S. aureus strain SA009): 2 µg/mL; MIC (S. aureus; S. aureus strain SA014): 4 µg/mL; MIC (S. aureus; S. aureus strain SA093): 1 µg/mL; MIC (S. epidermidis; S. epidermidis strain SE010): 4 µg/mL
ILKKFPWFPWRRK [MBI 11A6CN] | 2 | >128 | 16 |  |  | 32 | >128 | 128 | >128 |  |  |  |  | MIC (E. faecalis; E. faecalis EFS004): 64 µg/mL; MIC (E. faecalis; E. faecalis strain EFS001): 1 µg/mL; MIC (E. faecalis; E. faecalis strain EFS008): 8 µg/mL; MIC (E. faecium; E. faecium EFM003): 2 µg/mL; MIC (S. aureus; S. aureus SA016): 2 µg/mL; MIC (S. aureus; S. aureus strain SA014): 4 µg/mL; MIC (S. aureus; S. aureus strain SA093): 0.5 µg/mL; MIC (S. epidermidis; S. epidermidis strain SE010): 4 µg/mL
ILKKIPIIPIRRK [MBI 11A2CN] |  | >128 |  | >128 | 16 |  | >128 |  |  | >128 | >128 |  |  | MIC (A. calcoaceticus; A. calcoaceticus strain AC001): >128 µg/mL; MIC (K. pneumoniae; K. pneumoniae strain KP002): >128 µg/mL; MIC (S. aureus; S. aureus strain SA004): 8 µg/mL; MIC (S. marcescens; S. marcescens strain SBS003): >128 µg/mL; FIC (bacterial isolates; S. aureus SA014): 1.00; FIC (bacterial isolates; S. aureus SA093): 0.75
ILKKNPNNPNRRK [MBI 11M8] |  |  |  |  |  |  |  |  |  |  |  |  |  | MIC (E. faecalis; E. faecalis EFS002): 32 µg/mL; MIC (E. faecium; E. faecium EFM002): 32 µg/mL; MIC (S. aureus; S. aureus SA008): 32 µg/mL
ILKKPWWPWRRK [MBI 11G3CN] |  | >128 |  | 64 |  | >128 |  |  |  | 64 | >128 | >128 |  | MIC (E. faecium; E. faecium strain EFM002): 32 µg/mL; MIC (P. aeruginosa; P. aeruginosa strain PA003): >128 µg/mL; MIC (S. aureus; S. aureus strain SA009): 8 µg/mL
ILKKWAWWPWRRK [MBI 11C3CN] | 4 | >128 |  | 32 |  | 128 |  | 64 |  |  |  | >128 | 2 | MIC (E. coli; E. coli strain ECO002): 16 µg/mL; MIC (E. faecium; E. faecium strain EFM002): 1 µg/mL; MIC (P. aeruginosa; P. aeruginosa strain PA005): >128 µg/mL; MIC (S. aureus; S. aureus strain SA005): 2 µg/mL
ILKKWPWPWRRK [MBI 11A4CN] | 8 | >128 |  | 64 |  | >128 | >128 | >128 |  | 32 |  | >128 | 8 | MIC (E. faecium; E. faecium strain EFM001): 32 µg/mL; MIC (S. aureus; S. aureus strain SA005): 2 µg/mL
ILKKWPWW PWKKK [MBI 11B10CN] | 2 | >128 | 16 | 64 | 4 | 32 | >128 | 128 | >128 |  |  |  |  | MIC (E. faecalis; E. faecalis strain EFS001): 8 µg/mL; MIC (E. faecalis; E. faecalis strain EFS008): 64 µg/mL; MIC (S. aureus; S. aureus strain SA008): 2 µg/mL; MIC (S. aureus; S. aureus strain SA014): 4 µg/mL; MIC (S. aureus; S. aureus strain SA093): 1 µg/mL; MIC (S. epidermidis; S. epidermidis strain SE010): 4 µg/mL
ILKKWPWWAWRRK [MBI 11C4CN] | 4 | >128 | 32 | 32 | 2 | >128 |  | 64 |  |  |  | >128 | 4 | MIC (P. aeruginosa; P. aeruginosa strain PA005): >128 µg/mL; MIC (S. aureus; S. aureus strain SA009): 4 µg/mL
ILKKWPWWPRRK [MBI 11G6CN] |  | >128 |  | 128 | 4 | >128 | >128 |  | >128 |  | >128 |  | 8 | MIC (A. calcoaceticus; A. calcoaceticus strain AC001): >128 µg/mL; MIC (E. coli; E. coli strain ECO002): 32 µg/mL; MIC (S. aureus; S. aureus strain SA006): 2 µg/mL
ILKKWPWWPWR [MBI 11G14CN] | 8 | >128 |  | 32 |  |  |  | 128 |  | 32 |  | >128 | 8 | MIC (E. faecium; E. faecium strain EFM001): 16 µg/mL; MIC (K. pneumoniae; K. pneumoniae strain KP002): 128 µg/mL; MIC (P. aeruginosa; P. aeruginosa strain PA006): >128 µg/mL; MIC (S. aureus; S. aureus strain SA013): 0.5 µg/mL
ILKKWPWWPWRPMILKKAGS [MBI 11D5CN] |  | >64 |  | 16 | 1 | >64 |  |  |  | 64 | 64 | >64 |  | MIC (A. calcoaceticus; A. calcoaceticus strain AC001): >64 µg/mL; MIC (P. aeruginosa; P. aeruginosa strain PA003): >64 µg/mL; MIC (S. aureus; S. aureus strain SA005): 8 µg/mL

From patent publication US20020035061A1, “COMPOSITIONS AND METHODS FOR TREATING INFECTIONS USING CATIONIC PEPTIDES ALONE OR IN COMBINATION WITH ANTIBIOTICS” (priority 1996, published 2002)
